Measured values from patent US12435066B2, “Substituted tricyclic compounds” (LUPIN LIMITED, priority 2019, dated 2025).

Experiments:
hSOS1 and hKRASG12C = target: T1, hSOS1 and hKRASG12C (Homo sapiens, UniProt Q07889); experiment: biochemical
T1 sequence (Q07889 564-1049): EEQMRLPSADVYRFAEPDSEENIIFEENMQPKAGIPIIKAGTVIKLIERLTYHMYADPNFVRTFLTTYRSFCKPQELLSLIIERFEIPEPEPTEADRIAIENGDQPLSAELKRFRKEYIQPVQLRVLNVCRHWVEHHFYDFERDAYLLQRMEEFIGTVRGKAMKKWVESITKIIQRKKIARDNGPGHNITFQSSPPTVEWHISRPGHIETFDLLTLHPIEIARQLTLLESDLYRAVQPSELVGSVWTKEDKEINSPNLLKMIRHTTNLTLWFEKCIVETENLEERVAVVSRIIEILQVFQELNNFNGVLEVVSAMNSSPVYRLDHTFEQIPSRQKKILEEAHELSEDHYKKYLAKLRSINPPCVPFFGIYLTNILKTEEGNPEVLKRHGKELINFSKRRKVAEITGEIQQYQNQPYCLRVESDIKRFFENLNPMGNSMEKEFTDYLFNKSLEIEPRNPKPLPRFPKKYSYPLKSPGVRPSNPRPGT
Description: Interaction assay was conducted to evaluate the ability of the compounds to disrupt the protein-protein interactions between hSOS1 and hKRASG12C. Inhibitory effect of compounds on GST-hSOS1, 564-1049aa expressed and purified in-house and HIS-hKRASG12C (R06-32DH, SignalChem) interaction was assessed using HTRF detection technology in biochemical assay. Compounds were pre-incubated with 10-50 nM working solution of hSOS1 per well of a 384 well plate (Perkin Elmer, Cat #6007290) for 10 min at 20° C. in the assay buffer containing 5 mM HEPES, pH 7.4, 150 mM NaCl, 10 mM EDTA, 1 mM DTT, 0.05% BSA fraction V and 0.0025% Igepal. Reaction was initiated by adding 100-300 nM working solution of hKRASG12C in assay buffer. Total assay volume was 15 μL. Reaction was continued for 30-60 min at 20° C. Then detection solution containing MAb Anti-GST-d2 (#61GSTDLA, Cisbio BioAssays) and MAb Anti-HIS-Tb (#61HISTLA, Cisbio BioAssays), all prepared in HTRF detection buffer (#61DB10RDF, Cisbio BioAssays) was added and further incubated for 30-60 min at 20° C. HTRF signal was recorded in PHERAStar microplate reader. Ratio of signal obtained at 665 nm and 620 nm was used to compute the percent inhibition of compound utilizing the following formula:
Positive control=hSOS1+hKRASG12C+MAb Anti-GST-d2+Mab Anti-HIS-Tb Negative control=hKRASG12C+MAb Anti-GST-d2+MAb Anti-HIS-Tb

pERK in DLD1 cells = experiment: ERK phosphorylation assay after EGF stimulation; type: cell-based; settings: Homo sapiens, DLD-1, compound 2 h, 200 ng/ml hEGF 5 minutes, alphascreen pERK, read-out: ERK phosphorylation inhibition IC50
Outline: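 DLD1 cells pretreated 2 h with compound, then stimulated 5 minutes with 200 ng/ml hEGF. Lysates assayed for ERK1/2 p-T202/Y204 by AlphaScreen SureFire, read after 2 h at 25-28° C.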

[1] = target: T2, hSOS1 mediated nucleotide exchange on hKRASG12C (Homo sapiens, UniProt Q07889); experiment: biochemical
T2 sequence (Q07889 564-1049): T1 sequence (Q07889 564-1049)
Description: Example-127: Guanine Nucleotide Exchange Assay (GNEA)
GNEA assay was conducted to evaluate the effects of compounds on the nucleotide exchange on hKRASG12C mediated by hSOS1. Inhibitory effect of compounds on HIS-hSOS1, 564-1049aa mediated GTP loading onto GST-hKRASG12C, 1-169aa both expressed and purified in-house was assessed using HTRF detection technology in biochemical assay. Compounds were pre-incubated with hSOS1 working solution containing 10-50 nM hSOS1 and 200 nM EDA-GTP-DY-647P1 (Custom manufactured, Jena Biosciences) per well of a 384 well plate (Perkin Elmer, Cat #6007290) for 10 min at 20° C. in the assay buffer containing 10 mM HEPES, pH 7.4, 150 mM NaCl, 5 mM MgCl2, 1 mM DTT, 0.05% BSA fraction V and 0.0025% Igepal. Reaction was initiated by adding working solution of hKRASG12C containing 25-125 nM hKRASG12C and MAb Anti-GST-Tb (#61GSTTLA, Cisbio BioAssays) in assay buffer. Total assay volume was 15 μL. Reaction was continued for 30-60 min at 20° C. HTRF signal was recorded in PHERAStar microplate reader. Ratio of signal obtained at 665 nm and 620 nm was used to compute the percent inhibition of compound as follows.
Where, Positive control=hSOS1+EDA-GTP-DY-647P1+hKRASG12C+MAb Anti-GST-Tb Negative control=EDA-GTP-DY-647P1+hKRASG12C+MAb Anti-GST-Tb

DLD-1 cell line = experiment: Colony formation assay (single agent activity); type: cell-based; settings: Homo sapiens, 168 h, 7 days of drug treatment, crystal violet
Description: Example-129: Colony Formation Assay Protocol (Single Agent Activity)
DLD-1/MIA PaCa-2 cells were seeded at a density of 300/500 cells per well respectively in 48 well tissue culture plate and cells were allowed to settle overnight (16 to 20 h). On the following day, cells were treated with different concentrations of test or reference compound and the assay plates were incubated under standard cell culture conditions (37° C. with 5% CO2). After 7 days of drug treatment, media was removed from each well and plates were washed with PBS. Colonies were stained with crystal violet solution for 2-5 min. Plate was then washed carefully under tap water and air dried. For quantitation, 200 μL destaining solution containing 10% Glacial acetic acid was added to each well and crystal violet from the colonies was allowed to solubilize for 20-30 min on plate shaker. After solubilization, absorbance of the extracted stain was recorded in BioTek Synergy Neo II plate reader at 590 nm. Absorbance values were directly proportional to colony growth.

[2] = system: MIA PaCa-2 human pancreatic cancer xenograft; experiment: Tumor growth inhibition in subchronic xenograft model; type: in vivo; settings: MIA PaCa-2 xenograft in nude mice, 50 mg/kg b.i.d.
Description: In vivo efficacy of compound 87 was evaluated in MIA PaCa-2 human pancreatic cancer xenograft model in nude mice.
20×10^6 MIA PaCa-2 cells were injected subcutaneously in the presence of PBS and matrigel in 1:1 ratio in nude mice. The tumor-bearing mice were randomized once the tumors reached an average volume of approximately 154-159 mm^3 (Tumor volume range 107-248 mm^3). The mice were divided into the following groups (n=7-8/group): Vehicle control and compound 87 (50 mg/kg; b.i.d.).

## Cc1nc(N[C@H](C)c2cccc(C(F)(F)[C@](C)(O)CO)c2F)c2cc(N3CCOCC3)c3c(c2n1)CCC3 (racemic) [Compound 82a, (R/S)-3,3-difluoro-3-(2-fluoro-3-((R/S)-1-((2-methyl-6-morpholino-8,9-dihydro-7H-cyclopenta[h]quinazolin-4-yl)amino)ethyl)phenyl)-2-methylpropane-1,2-diol]
hSOS1 and hKRASG12C
  IC50: 1 to 10 nM
pERK in DLD1 cells
  IC50: 1 to 200 nM
[1]
  IC50: 1 to 30 nM
DLD-1 cell line
  IC50: 500 to 6000 nM

## COCC1(O)CCN(c2cc3c(N[C@H](C)c4cccc(C(F)(F)CCO)c4F)nc(C)nc3c3c2CCC3)CC1 [Compound 71, (R)-1-(4-((1-(3-(1,1-difluoro-3-hydroxypropyl)-2-fluorophenyl)ethyl)amino)-2-methyl-8,9-dihydro-7H-cyclopenta[h]quinazolin-6-yl)-4-(methoxymethyl) piperidin-4-ol]
hSOS1 and hKRASG12C
  IC50: 1 to 10 nM
pERK in DLD1 cells
  IC50: 1 to 200 nM
[1]
  IC50: 1 to 30 nM

## Cc1nc(N[C@H](C)c2cccc(C(F)(F)CO)c2F)c2cc(N3CCOCC3)c3c(c2n1)CCC3 [Compound 75, (R)-2,2-difluoro-2-(2-fluoro-3-(1-((2-methyl-6-morpholino-8,9-dihydro-7H-cyclopenta[h]quinazolin-4-yl)amino)ethyl)phenyl)ethan-1-ol]
hSOS1 and hKRASG12C
  IC50: 1 to 10 nM
pERK in DLD1 cells
  IC50: 1 to 200 nM
[1]
  IC50: 1 to 30 nM

## Cc1nc(N[C@H](C)c2cc(N)cc(C(F)(F)F)c2)c2cc(N3CCOCC3=O)c3c(c2n1)CCC3 [Compound 83, (R)-4-(4-((1-(3-amino-5-(trifluoromethyl)phenyl)ethyl)amino)-2-methyl-8,9-dihydro-7H-cyclopenta[h]quinazolin-6-yl)morpholin-3-one]
hSOS1 and hKRASG12C
  IC50: 11 to 20 nM
pERK in DLD1 cells
  IC50: 1 to 200 nM
[1]
  IC50: 71 to 130 nM

## Cc1nc(N[C@H](C)c2cc(N)cc(C(F)(F)F)c2)c2cc(N3CCC(O)(CO)CC3)c3c(c2n1)CCC3 [Compound 84, (R)-1-(4-((1-(3-amino-5-(trifluoromethyl)phenyl)ethyl)amino)-2-methyl-8,9-dihydro-7H-cyclopenta[h]quinazolin-6-yl)-4-(hydroxymethyl)piperidin-4-ol]
hSOS1 and hKRASG12C
  IC50: 1 to 10 nM
pERK in DLD1 cells
  IC50: 1 to 200 nM
[1]
  IC50: 1 to 30 nM

## Cc1nc(N[C@H](C)c2cccc(C(F)(F)C(C)(C)O)c2F)c2cc(N3CCC(O)(CO)CC3)c3c(c2n1)CCC3 [Compound 85, (R)-1-(4-((1-(3-(1,1-difluoro-2-hydroxy-2-methylpropyl)-2-fluorophenyl)ethyl)amino)-2-methyl-8,9-dihydro-7H-cyclopenta[h]quinazolin-6-yl)-4-(hydroxymethyl) piperidin-4-ol]
hSOS1 and hKRASG12C
  IC50: 1 to 10 nM
pERK in DLD1 cells
  IC50: 1 to 200 nM
[1]
  IC50: 1 to 30 nM

## Cc1nc(N[C@H](C)c2cc(N)cc(C(F)(F)F)c2)c2cc(-c3ccc(=O)n(C)c3)c3c(c2n1)CCC3 [Compound 87, (R)-5-(4-((1-(3-amino-5-(trifluoromethyl)phenyl)ethyl)amino)-2-methyl-8,9-dihydro-7H-cyclopenta[h]quinazolin-6-yl)-1-methylpyridin-2(1H)-one]
hSOS1 and hKRASG12C
  IC50: 1 to 10 nM
[2]
  % tumor growth inhibition: more than 70%
pERK in DLD1 cells
  IC50: 1 to 200 nM
[1]
  IC50: 31 to 70 nM
DLD-1 cell line
  IC50: 500 to 6000 nM

## Cc1nc(N[C@H](C)c2cc(N)cc(C(F)(F)F)c2)c2cc(N3CCOCC3)c3c(c2n1)CC(C)(C)O3 [Compound 113, (R)—N-(1-(3-amino-5-(trifluoromethyl)phenyl)ethyl)-2,8,8-trimethyl-6-morpholino-8,9-dihydrofuro[2,3-h]quinazolin-4-amine]
hSOS1 and hKRASG12C
  IC50: 1 to 10 nM
pERK in DLD1 cells
  IC50: 1 to 200 nM
[1]
  IC50: 1 to 30 nM

## Cc1nc(N[C@H](C)c2cc(N)cc(C(F)(F)F)c2)c2cc(N3CC4(COC4)C3)c3c(c2n1)CC(C)(C)O3 [Compound 114, (R)—N-(1-(3-amino-5-(trifluoromethyl)phenyl)ethyl)-2,8,8-trimethyl-6-(2-oxa-6-azaspiro[3.3]heptan-6-yl)-8,9-dihydrofuro[2,3-h]quinazolin-4-amine]
hSOS1 and hKRASG12C
  IC50: 1 to 10 nM
pERK in DLD1 cells
  IC50: 1 to 200 nM
[1]
  IC50: 31 to 70 nM

## Cc1nc(N[C@H](C)c2cc(N)cc(C(F)F)c2)c2cc(N3CCOCC3)c3c(c2n1)CC(C)(C)O3 [Compound 115, (R)—N-(1-(3-amino-5-(difluoromethyl)phenyl)ethyl)-2,8,8-trimethyl-6-morpholino-8,9-dihydrofuro[2,3-h]quinazolin-4-amine]
hSOS1 and hKRASG12C
  IC50: 1 to 10 nM
pERK in DLD1 cells
  IC50: 1 to 200 nM
[1]
  IC50: 31 to 70 nM

## Cc1nc(N[C@H](C)c2cccc(C(F)(F)C(C)(C)O)c2F)c2cc(C3(O)CCOCC3)c3c(c2n1)CCC3 [Compound 119, (R)-4-(4-((1-(3-(1,1-difluoro-2-hydroxy-2-methylpropyl)-2-fluorophenyl)ethyl)amino)-2-methyl-8,9-dihydro-7H-cyclopenta[h]quinazolin-6-yl)tetrahydro-2H-pyran-4-ol]
hSOS1 and hKRASG12C
  IC50: 11 to 20 nM
pERK in DLD1 cells
  IC50: 1 to 200 nM
[1]
  IC50: 31 to 70 nM

## COc1cc2c(N[C@H](C)c3cccc(C(F)(F)CO)c3F)nc(C)nc2c2c1N(C)CCO2 [Compound 121, (R)-2,2-difluoro-2-(2-fluoro-3-(1-((6-methoxy-2,7-dimethyl-8,9-dihydro-7H-[1,4]oxazino[3,2-h]quinazolin-4-yl)amino)ethyl)phenyl)ethan-1-ol]
hSOS1 and hKRASG12C
  IC50: 1 to 10 nM
pERK in DLD1 cells
  IC50: 1 to 200 nM
[1]
  IC50: 1 to 30 nM
